The text below walks through data of patent US9044465B2, “Use of analgesic potentiating compounds to potentiate the analgesic properties of an analgesic compound” (priority 2008, dated 2015).

Test [1] deals with patients with acute sore throat and pharyngitis. Description: Difficulty Swallowing Scale (DSS), same study. As to conditions: single oral dose, vs placebo. It counts as in vivo, human. From the text:
(§1) A total of 99 patients who met pre-specified inclusion and exclusion criteria, including moderate to severe throat pain intensity, as measured by a score≧7 on the Throat Soreness Scale (TSS), were admitted to the study.
(§2) There were 9 patients randomly assigned to each treatment group.
(§3) The Throat Soreness Scale (TSS), Swollen Throat Scale (SwoTS), Difficulty Swallowing Scale (DSS), Difficulty Talking Scale (DTS), and other Quality-of-Pain Scales were completed at Baseline (immediately pre-treatment). Each of these measurement instruments is a 0-10 ordinal scale (see TEST PROTOCOL below).
(§4) After administration of the assigned study medication, patients completed (1) the Throat Soreness Scale, (2) the Swollen Throat Scale, (3) the Difficulty Swallowing Scale, and (4) the Improvement Assessment (IA) every 15 minutes up to 2 hours. Measurements on the Difficulty Talking Scale and the Quality-of-Pain Scales were obtained after these four assessments at 60 minutes and at 2 hours after treatment.
(§5) After these 2nd hour assessments, patients were discharged from the clinic with a Diary for entering responses on the Throat Soreness Scale, Swollen Throat Scale, Difficulty Swallowing Scale, Difficulty Talking Scale, and Improvement Assessment at 3, 4, 5, and 6 hours. After the 6 hour assessments, patients completed the Quality-of-Pain Scales. […]

Test [2] shares this test system. Description: Throat Soreness Scale (TSS), randomized double-blind placebo-controlled single-dose study. The format is in vivo, human. As to conditions: single oral dose; for reduction in throat soreness (TSS) compared to placebo over 6 hours: 9 patients per group, vs placebo; for time from which TSS scores separated/differed from placebo: throat soreness difference at individual time points. As to the method: as §1, §2
They were discharged home for hourly assessments up to 6 hours post-dose. Patients were allowed alternative analgesic medication at any time during the study.
as §3, §4
(§6) After these 2nd hour assessments, patients were discharged from the clinic with a Diary for entering responses on the Throat Soreness Scale, Swollen Throat Scale, Difficulty Swallowing Scale, Difficulty Talking Scale, and Improvement Assessment at 3, 4, 5, and 6 hours. After the 6 hour assessments, patients completed the Quality-of-Pain Scales.
The patient will be asked to evaluate his/her throat soreness using a 0-to-10 ordinal scale at Baseline as well as at 15, 30, 45, 60, 75, 90, 105 and 120 min and then hourly through 6 hours. The patient will be requested to swallow and instructed:
The primary endpoint variable is the Summed Difference in Throat Soreness at 6 hours, which is based on the Throat Soreness Scale. The patient will be asked to evaluate his/her throat soreness, using a 0-to-10 ordinal scale at baseline and at 15, 30, 45, 60, 75, 90, 105 minutes and 2, 3, 4, 5, and 6 hours. At each time point post-dose, a difference is calculated between the throat soreness at that time and the patient's baseline throat soreness. The time-weighted Summed Difference in Throat Soreness at each time point is calculated as the sum of the differences from baseline until that time point.

Test [3] shares this test system. Description: Difficulty Talking Scale (DTS), same study. The format is in vivo, human. As to conditions: single oral dose, vs placebo.
Excerpt: as §1, §2, §3, §4, §5

For test [4] the test system is unchanged. As to the kind of experiment: Improvement Assessment (IA), same study. As to conditions: single oral dose; for patients who achieved at least some improvement within 30 minutes (IA): first 30 minutes, placebo 1/9; for time from which IA scores separated/differed from placebo: improvement at individual time points; for patients who achieved at least 50% improvement over 6 hours (IA): over the 6-hour treatment period, placebo 2/9; for patients who achieved at least some improvement within 1 hour (IA): placebo 4/9. It counts as in vivo, human.
Excerpt: as §1, §2, §4, §6
The patient will grade the improvement of his/her throat at 15, 30, 45, 60, 75, 90, 105, and 120 minutes, and at 3, 4, 5, and 6 hours post dose using a 5-category transitional scale. The patient will be instructed:
“Considering how your throat felt before you took the study medicine, circle the response that best describes how your throat is now.”
• Grading • no improvement • some improvement • 50% improvement • definite improvement • 100% improvement Data from this scale will be transcribed onto the appropriate Summary Data CRFs. Definite Improvement Level (DIL)

For test [5] the test system is unchanged. As to the kind of experiment: Quality of Pain Index (QPI, 12 qualities of throat pain), same study. It counts as in vivo, human. Particulars: single oral dose, vs placebo.
Excerpt: as §1, §2, §4, §6
The patient will be instructed to swallow and instructed: […]

Test [6] shares this test system. As to the kind of experiment: Throat Function Index (TFI: swallowing and talking), same study. Particulars: single oral dose, vs placebo. The format is in vivo, human.
Excerpt: as §1, §2
**Difficulty Swallowing and Difficulty Talking comprise the 20-point Throat Function Index.

Test [7] has the same test system. As to the kind of experiment: Swollen Throat Scale (SwoTS), same study. Particulars: single oral dose, vs placebo. The format is in vivo, human.
Excerpt: as §1, §2, §3, §4, §5

For test [8] the test system is unchanged. Description: Definite Improvement Level (DIL), same study. As to conditions: single oral dose, placebo 11.1%; for patients who achieved their own Definite Improvement Level on the TSS: Throat Soreness Scale.
Protocol: A randomized, double-blind, placebo-controlled single-dose study was performed. In order to be eligible for the study, patients were required to have a history of an acute sore throat and physical evidence of pharyngitis. A total of 99 patients who met pre-specified inclusion and exclusion criteria, including moderate to severe throat pain intensity, as measured by a score≧7 on the Throat Soreness Scale (TSS), were admitted to the study.
At this visit they were shown each baseline rating scale and asked to indicate which level represented “definite improvement” to them (Definite Improvement Level), the Diary was reviewed for completeness by the Study Nurse, and ongoing evaluation and treatment were provided, if necessary, per standard clinic procedures.
After the patient is shown his/her completed Baseline Throat Soreness Scale, the Study Nurse will point to the number which the patient marked at Baseline and instruct the patient:
“Starting at this level with your sore throat, at and below which number means definite improvement to you?”
Next, the Study Nurse will separately show the patient his/her Baseline Difficulty Swallowing Scale, Swollen Throat Scale, Difficulty Talking Scale, and each of the 10 Quality-of-Pain Scales, with the same instructions for each scale.
Analyses were performed on all 99 patients (“intent-to-treat analyses”). […] Definite Improvement Level comparisons were performed using Fisher's Exact Test. Correlations between each new rating scale and the TSS were performed using Spearman Rank Correlation.

`CC(=O)Nc1ccc(O)cc1` [acetaminophen]: the “reduction in difficulty swallowing (DSS) compared with placebo over 6 hours” value in test [1] was “significant difference”. In addition, in test [2], the “reduction in throat soreness (TSS) compared to placebo over 6 hours” value (shortened to “reduction in throat soreness (TSS)”) is “significantly greater reduction in throat soreness compared to placebo” and the “time from which TSS scores separated/differed from placebo” value was found to be 15 min. The “reduction in difficulty talking (DTS) compared with placebo over 6 hours” value in test [3] is reported as “significant”. Moreover, in test [4], the “patients who achieved at least some improvement within 30 minutes (IA)” value was 8/9, the “time from which IA scores separated/differed from placebo” value was determined as 30 min, the “patients who achieved at least 50% improvement over 6 hours (IA)” value is 7/9 and the “patients who achieved at least some improvement within 1 hour (IA)” value is recorded as 9/9. Further, in test [5], the “reduction in the QPI compared with placebo over 6 hours” value is listed as “significantly differentiated from placebo”. For the same compound, in test [6], the “reduction in the TFI compared with placebo over 6 hours” value is “significantly greater reduction in the TFI”. Also, the “reduction in throat swelling (SwoTS) compared with placebo over 6 hours” value in test [7] is “significantly differentiated from placebo”. In test [8], the “patients who achieved their own Definite Improvement Level on the TSS” value is reported as 44.4%, the “patients who achieved their own Definite Improvement Level on the "It hurts" Quality-of-Pain Scale” value is on record as 55.6% and the “patients who achieved their own Definite Improvement Level on the Difficulty Swallowing Scale” value was 55.6%.
Regarding `Cc1ccc(-c2cc(C(F)(F)F)nn2-c2ccc(S(N)(=O)=O)cc2)cc1` [celecoxib], the “time from which TSS scores separated/differed from placebo” value in test [2] was 30 min. In test [4], the “patients who achieved at least some improvement within 30 minutes (IA)” value is given as 3/9, the “time from which IA scores separated/differed from placebo” value was 45 min, the “patients who achieved at least 50% improvement over 6 hours (IA)” value was 8/9 and the “patients who achieved at least some improvement within 1 hour (IA)” value is reported as 7/9. In test [8], the “patients who achieved their own Definite Improvement Level on the TSS” value amounted to 77.7%, the “patients who achieved their own Definite Improvement Level on the "It hurts" Quality-of-Pain Scale” value is given as 55.6% and the “patients who achieved their own Definite Improvement Level on the Difficulty Swallowing Scale” value is reported as 66.7%.
On to `CC(C)Cc1ccc(C(C)C(=O)O)cc1` (centres unmarked) [ibuprofen], for which, in test [1], the “reduction in difficulty swallowing (DSS) compared with placebo over 6 hours” value was “greater reduction in difficulty swallowing compared with placebo”. In addition, in test [2], the “reduction in throat soreness (TSS)” value is recorded as “trend” and the “time from which TSS scores separated/differed from placebo” value was 30 min. For the same compound, in test [4], the “patients who achieved at least some improvement within 30 minutes (IA)” value was 6/9, the “time from which IA scores separated/differed from placebo” value was found to be 30 min, the “patients who achieved at least 50% improvement over 6 hours (IA)” value is given as 4/9 and the “patients who achieved at least some improvement within 1 hour (IA)” value was 9/9. In test [8], the “patients who achieved their own Definite Improvement Level on the TSS” value worked out at 44.4%, the “patients who achieved their own Definite Improvement Level on the "It hurts" Quality-of-Pain Scale” value is on record as 33.3% and the “patients who achieved their own Definite Improvement Level on the Difficulty Swallowing Scale” value turned out to be 44.4%.
For the compound `COc1ccc2cc([C@H](C)C(=O)O)ccc2c1` [naproxen, naproxen sodium], in test [2], the “reduction in throat soreness (TSS)” value is reported as “differentiated from placebo” and the “time from which TSS scores separated/differed from placebo” value was determined as 30 min. In test [4], the “patients who achieved at least some improvement within 30 minutes (IA)” value was 4/9, the “time from which IA scores separated/differed from placebo” value was 45 min, the “patients who achieved at least 50% improvement over 6 hours (IA)” value is recorded as 4/9 and the “patients who achieved at least some improvement within 1 hour (IA)” value is on record as 7/9. Besides, in test [8], the “patients who achieved their own Definite Improvement Level on the TSS” value is on record as 22.2%, the “patients who achieved their own Definite Improvement Level on the "It hurts" Quality-of-Pain Scale” value worked out at 33.3% and the “patients who achieved their own Definite Improvement Level on the Difficulty Swallowing Scale” value is 33.3%.
